According to US20040180855A1, “Methods of treating thrombosis with reduced risk of increased bleeding times” (priority 2003, published 2004):

Key:
[1] = test system: rat plasma; assay: APTT clotting time, rat plasma; type: biochemical
Text: The term “APTT” as used herein means “activated partial thromboplastin times” which is intended to refer to the time elapsed between the formation of an assay solution and the detection of clot formation in the assay solution with use of an APTT assay, i.e., an assay employing an intrinsic pathway activator, such as micronized silica, and a phospholipid component of a thromboplastin reagent (without tissue factor protein) for evaluating coagulation associated with the intrinsic pathway.
(§1) PT and APTT clotting times were determined as described in Balasubramanian et al., J. Med. Chem., Vol. 36 (1993), at pp. 300-03, incorporated herein by reference. The whole blood aggregation response of rat platelets to collagen was determined using the impedance procedure for a Model 560-CA Chrono-Log aggregometer (Havertown, Pa.).

[2] = test system: panel of 40 receptors and enzymes; assay: Panel of 40 receptors and enzymes (MDS Panlabs Pharmacology Services)
[3] = target: T1, Human TF:FVIIa (Homo sapiens, UniProt P08709); assay: Selectivity assay TF:FVIIa; type: biochemical; conditions: Table 3
T1 construct: purchased Enzyme Research Labs (FVIIa); Dade (Innovin, tissue factor)
Description: Human TF:FVIIa activity was measured using isolated human FVIIa (Enzyme Research Labs) in the presence of recombinant human tissue Factor (Dade Innovin) in a buffer containing 20 mM HEPES, 150 mM NaCl, 5mM CaCl2, 1 mM CHAPS and 1 mg/mL PEG 6000 (pH to 7.4).

[4] = target: T2, human α-thrombin (Homo sapiens, UniProt P00734); assay: Selectivity assay thrombin; type: biochemical; conditions: Table 3
T2 construct: Enzymatic activity of human α-thrombin (Sigma) was measured; purchased Sigma

[5] = target: T3, human factor Xa (Homo sapiens, UniProt P00742); assay: Selectivity assay factor Xa; type: biochemical; conditions: Table 3; read-out: IC50 (μM) FXa
T3 construct: Factor IXa then converts Factor X to Factor Xa; purchased Kabi Vitrum

[6] = test system: rat plasma (ex vivo PT); assay: Ex vivo clotting time PT; type: in vivo; conditions: loading plus sustaining i.v. infusion
Description: Ex Vivo Clotting Times Ex vivo clotting time assays were used to determine the level of anticoagulation achieved in the thrombosis and bleeding time procedures, described above. A small organic compound for inhibiting Factor XIa was administered at doses (mg/kg+mg/kg/hr) of 0.5+0.5 (n=3), 2+2 (n=4), 6+6 (n=3), 12+12 (n=3) and 24+24 (n=10). Carotid artery blood (0.6 mL drawn into 1/10 volume of 3.8% Na-citrate) was sampled before (0 min control) and at 5, 15, 30, 60 and 90 min after the start of the compound infusion. The APTT was determined in freshly prepared plasma from each sample using the standard procedure for Dade Actin FSL reagent (Baxter Healthcare Corp., Miami, Fla.). The PT was determined in some animals from the 6+6 (n=3), 12+12 (n=3) and 24+24 (n=2) dose groups using Dade Thromboplastin●C reagent.
Plasma was sampled before (0 min control) and after the infusion, at intervals of 5, 15, 30, 60 and 90 min after initiating the infusion. Average APTT increases over the 15-90 min period, an interval most applicable to thrombosis and bleeding time protocols, were calculated. Control APTT values averaged 19.9±1.3 seconds overall. The PT was unaltered as expected from in vitro results. […] The range of efficacious doses in venous and arterial thrombosis (2+2, 6+6, 12+12; mg/kg+mg/kg/hr) produced an APTT increase of about 2.8 times control.

[7] = test system: rat plasma; assay: PT clotting time, rat plasma; type: biochemical; conditions: up to 100 μM
Description: The term “PT” time as used herein refers to prothrombin times which is intended to refer to the time elapsed between formation of an assay solution and detection of clot formation in the assay solution with use of a PT assay, i.e., an assay employing thromboplastin reagents that are used for evaluating blood coagulation associated with the extrinsic pathway.
as §1

[8] = target: T4, FXIIa (Homo sapiens, UniProt P00748); assay: Selectivity assay FXIIa; type: biochemical; conditions: Table 3
T4 construct: purchased American Diagnostica

[9] = test system: stasis-VT (vena cava thrombosis); assay: Venous thrombosis, stasis VT model; type: in vivo; conditions: rat stasis VT
Description: General Surgical Preparation Male Sprague Dawley rats (310 to 390 g) were anesthetized with Na-pentobarbital (50 mg/kg i.p.). The left jugular vein was cannulated with PE-50 tubing for drug administration, and the trachea was intubated with PE-205 tubing to ensure airway patency. […] Statistical Analysis In the venous and arterial thrombosis procedures, treatment effects on thrombus weight, baseline blood flow, and average blood flow during thrombosis were determined by analysis of variance with Dunnett's test for comparison to the vehicle group. […] Treatment effects on bleeding times were determined by analysis of variance with Dunnett's test for comparison to the vehicle group. Both post-treatment and pre-treatment bleeding times and the relative bleeding time increases in sec were analyzed. […]

T3 sequence (P00742 235-488 limits assumed): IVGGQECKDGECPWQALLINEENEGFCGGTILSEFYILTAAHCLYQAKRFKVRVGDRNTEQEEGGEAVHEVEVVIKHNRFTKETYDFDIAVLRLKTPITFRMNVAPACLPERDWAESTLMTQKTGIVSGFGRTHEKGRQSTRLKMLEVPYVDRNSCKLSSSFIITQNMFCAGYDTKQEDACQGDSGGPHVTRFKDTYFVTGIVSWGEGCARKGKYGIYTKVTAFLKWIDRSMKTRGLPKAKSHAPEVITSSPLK
T3 sequence (P00742 41-179 partner limits assumed): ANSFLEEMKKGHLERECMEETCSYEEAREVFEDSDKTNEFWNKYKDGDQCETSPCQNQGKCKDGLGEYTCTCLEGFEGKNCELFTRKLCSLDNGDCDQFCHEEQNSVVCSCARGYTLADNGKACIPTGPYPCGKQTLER
T4 sequence (P00748 373-615 limits assumed, other chains not shown): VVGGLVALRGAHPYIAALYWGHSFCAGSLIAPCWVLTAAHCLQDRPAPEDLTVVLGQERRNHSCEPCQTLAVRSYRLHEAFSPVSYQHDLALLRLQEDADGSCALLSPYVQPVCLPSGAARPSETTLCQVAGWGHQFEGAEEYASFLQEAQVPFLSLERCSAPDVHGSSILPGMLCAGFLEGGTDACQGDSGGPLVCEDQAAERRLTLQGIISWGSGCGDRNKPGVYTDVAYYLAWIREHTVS
T1 sequence (P08709 213-466 limits assumed): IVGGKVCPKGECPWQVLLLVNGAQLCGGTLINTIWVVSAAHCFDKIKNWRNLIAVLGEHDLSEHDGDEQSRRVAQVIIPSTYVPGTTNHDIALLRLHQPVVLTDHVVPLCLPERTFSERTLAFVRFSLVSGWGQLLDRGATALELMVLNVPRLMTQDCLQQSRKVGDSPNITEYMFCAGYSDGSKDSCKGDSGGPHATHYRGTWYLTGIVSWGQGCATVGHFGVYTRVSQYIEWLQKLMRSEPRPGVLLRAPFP
T1 sequence (P08709 61-212 partner limits assumed): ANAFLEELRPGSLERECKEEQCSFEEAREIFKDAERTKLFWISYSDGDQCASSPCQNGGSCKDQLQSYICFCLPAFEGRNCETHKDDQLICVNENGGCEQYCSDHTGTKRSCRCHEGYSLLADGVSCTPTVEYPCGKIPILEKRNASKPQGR
T1 sequence (P13726 33-295 partner): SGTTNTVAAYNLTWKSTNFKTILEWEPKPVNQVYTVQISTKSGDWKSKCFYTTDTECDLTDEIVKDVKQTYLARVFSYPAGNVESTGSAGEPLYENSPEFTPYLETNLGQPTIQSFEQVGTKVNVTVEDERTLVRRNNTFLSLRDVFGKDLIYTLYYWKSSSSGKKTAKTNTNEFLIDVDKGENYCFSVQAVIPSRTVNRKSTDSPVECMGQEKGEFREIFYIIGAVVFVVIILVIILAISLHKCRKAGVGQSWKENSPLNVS

Q: Which results are given for CC(C)(C)NC(=O)N1CCN(C(=O)N2C(=O)[C@H](CCCNC(=N)N)[C@H]2C(=O)O)CC1 [Example 4]?
A: Clotting time APTT (rat), concentration that doubles clotting time [1]: 2.1 µM; inhibition or enhancement of receptor and enzyme activities [2]: No significant inhibition or enhancement; IC50 [3]: 0.486 µM; IC50 [4]: 10.5 µM; IC50 [5]: > 33 µM; effect on ex vivo PT [6]: unaltered; Clotting time PT (rat), concentration that doubles clotting time [7]: >100 µM; IC50 [8]: > 33 µM; effect on thrombus weight ([9]; i.v. 2+2 mg/kg+mg/kg/hr): little effect; reduction in thrombus weight ([9]; i.v. 6+6 mg/kg+mg/kg/hr, FIG. 4): 64%
